Values after ≈ are worked out from the molar mass of the structure shown. A value given as a limit tells only on which side of the number the result lay.

Eight compounds from PMC5609566, “Elucidation of antimicrobial activity and mechanism of action by N-substituted carbazole derivatives” (Bioorganic & Medicinal Chemistry Letters, 2017) can be followed below.

Assay [1] relates to Aspergillus flavus ATCC MYA-1005. As to the kind of experiment: Mold growth inhibition. Type of assay: cell-based. Particulars: Aspergillus flavus ATCC MYA-1005, n=3; read-out: Fungal Growth Inhibition MIC. The source says: (§1) We subsequently assessed the carbazole series for antifungal activity, as described in Kjellerup et al., 2017.[15] Table 2, Table 3, Table 4, Table 5 list the minimum inhibitory concentrations (MIC) and the minimum fungicidal concentrations (MFC) of the fifteen compounds tested against the yeasts Saccharomyces cerevisiae, Candida albicans, C. krusei, and two isolates of C. glabrata (a wild-type strain ATCC 90030 and a clinical azole-resistant isolate Cg003 with increased efflux pump expression[19]), and the molds Aspergillus fumigatus and A. flavus. MIC was defined as the lowest concentration inhibiting visual growth of the microorganism in RPMI-1640 media. […] However, in several cases antifungal activity against molds was minimal, Table 5.
(§2) Compound hits from the library screening were evaluated against baker yeast S. cerevisiae and C. albicans (ATCC 90028). The minimum inhibitory concentration (MIC) was defined as the lowest concentration inhibiting visual growth of the microorganism and this was determined in triplicate. Standard errors were typically less than 5%. MICs for synthesized compounds were determined on the following fungal isolates: Saccharomyces cerevisiae (ATCC 9763), Candida albicans (SC5314), Candida krusei (ATCC 6258), Candida glabrata (ATCC 90030), Aspergillus flavus (ATCC MYA-1005) and Aspergillus fumigatus (ATCC 13073), which were purchased from American Type Culture Collection, and C. glabrata strain Cg003, which was kindly provided by Julius Subik, Comenius University in Bratislava, Slovak Republic. Cg003 is a clinical isolate, characterized to be resistant to fluconazole and itraconazole due to overexpression of the multidrug resistance efflux pumps Cdr1p and Cdr2p^5. The fungal growth assay was performed as described in Kjellerup et al., 2017^6.

In assay [2] the test system is Aspergillus fumigatus ATCC 13073. Put plainly: Mold growth inhibition. It is filed as cell-based. Particulars: ATCC13073; Aspergillus fumigatus ATCC 13073, n=3; read-out: Fungal Growth Inhibition MIC.
Description: as §1, §2

In a further assay the target is T1, C. albicans H^+-ATPase (Candida albicans, UniProt P28877).
T1 construct: endogenous in cells; host or cells: C. albicans culture grown in YPD; microsomal membrane preparation
T1 sequence (P28877 whole entry): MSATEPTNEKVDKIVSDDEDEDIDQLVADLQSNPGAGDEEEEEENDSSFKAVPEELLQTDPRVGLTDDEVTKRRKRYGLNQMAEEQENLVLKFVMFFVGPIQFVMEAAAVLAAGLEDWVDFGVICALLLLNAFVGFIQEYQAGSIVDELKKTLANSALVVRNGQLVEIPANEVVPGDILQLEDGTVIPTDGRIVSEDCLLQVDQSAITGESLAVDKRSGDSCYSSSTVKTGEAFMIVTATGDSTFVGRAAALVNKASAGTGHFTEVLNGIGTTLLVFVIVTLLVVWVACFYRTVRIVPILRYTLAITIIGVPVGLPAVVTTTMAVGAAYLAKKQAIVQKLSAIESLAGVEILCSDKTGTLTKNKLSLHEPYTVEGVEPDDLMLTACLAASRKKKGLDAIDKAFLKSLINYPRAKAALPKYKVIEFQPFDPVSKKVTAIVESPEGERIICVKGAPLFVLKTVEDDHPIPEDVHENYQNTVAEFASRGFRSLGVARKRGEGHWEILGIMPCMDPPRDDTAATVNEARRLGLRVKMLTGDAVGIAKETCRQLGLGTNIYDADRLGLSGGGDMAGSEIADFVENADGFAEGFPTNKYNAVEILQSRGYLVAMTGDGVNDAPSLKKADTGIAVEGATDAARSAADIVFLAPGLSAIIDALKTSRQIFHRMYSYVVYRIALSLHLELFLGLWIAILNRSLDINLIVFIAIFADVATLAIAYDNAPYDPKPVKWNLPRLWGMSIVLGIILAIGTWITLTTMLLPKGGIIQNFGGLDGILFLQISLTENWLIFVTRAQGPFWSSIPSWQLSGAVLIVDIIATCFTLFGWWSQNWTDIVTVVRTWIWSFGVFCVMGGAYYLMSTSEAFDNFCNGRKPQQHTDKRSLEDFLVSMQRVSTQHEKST
As to the kind of experiment: Colorimetric ATPase assay (ATP hydrolysis), C. albicans membranes. It is filed as biochemical. The following applies: pH 7, n = 3. From the text:
To investigate the H^+-ATPase inhibitory effect of the compounds we isolated plasma membranes containing H^+-ATPase from S. cerevisiae and C. albicans cells.[15] Plasma membranes isolated from pig kidney as well as endoplasmic reticulum membranes from rabbit hind leg muscle were used to counter-screen compounds for activity against mammalian Na^+,K^+-ATPase and Ca^2+-ATPase, respectively. Prior to their use, fungal plasma membrane batches were validated by determining the maximum ATP hydrolysis activity, the pH optimum of the ATPase activity, and the sensitivity to inhibition by orthovanadate. ATPase activity was determined by a colorimetric assay that measures the amount of inorganic phosphate liberated over time, as described in Kjellerup et al., 2017.[15] Table 2, Table 3, Table 4 list the IC50 values obtained by measuring the concentration dependence of the ATPase activity for the fifteen carbazole compounds with each of the four membrane preparations.
Pma1-containing plasma membranes were prepared from S. cerevisiae RS72 yeast cells that had been transformed with the full-length cDNA of the S. cerevisiae plasma membrane H^+-ATPase isoform PMA1 under control of the PMA1 promoter, using the same procedure as described in Kongstad et al., 2014^1. For the preparation of C. albicans membranes, a 100 ml overnight culture grown in YPD (10 g/L yeast extract (BD, Sparks, MD), 20 g/L Bacto peptone (BD), 20 g/L D-(+)-glucose) was transferred to 1 L YPD and grown for a further 7 h at RT with agitation (150 rpm), followed by cell harvesting and subsequent membrane preparation using the same procedure as described in Kongstad et al., 2014^1. […] Rabbit sarcoplasmic reticulum membranes containing Sarco/Endoplasmic Reticulum Ca^2+ ATPase (SERCA) were kindly provided by Dr. Claus E. Olesen and Dr. Jesper V. Møller, Aarhus University and prepared as described in Andersen et al., 1985^2. Pig kidney Na^+,K^+-ATPase was kindly provided by Dr. Natalya Fedosova, Aarhus University and prepared as described in Klodos et al., 2002^3.
The compound libraries were purchased from Enamine Ltd, Ukraine and Chembridge Corp, USA. ATPase activity was determined by measuring the amount of liberated phosphate from ATP hydrolysis. […] Reactions were initiated by the addition of Na-ATP to a final concentration of 2.5 mM (Pma1 and Na^+,K^+-ATPase) or 5 mM (SERCA), followed by 30 minutes incubation at 30 °C. The amount of liberated phosphate was determined colorimetrically after addition of STOP solution (mixture of L-ascorbic acid, ammonium heptamolybdate tetrahydrate, and HCl to give final concentrations of 65 mM, 2.2 mM, and 189 mM, respectively) with 5 minutes incubation at room temperature (RT) followed by addition of arsenite solution (mixture of NaAsO2, sodium citrate dihydrate, and acetic acid to give final concentrations of 3.1 mM, 28 mM, and 141 mM, respectively). Absorption was measured at 860 nm after an additional 30 minutes incubation at RT.

Another assay has as its system Candida albicans SC5314. As to the kind of experiment: Fungal growth inhibition MIC (MFC). The following applies: for MIC: Candida albicans SC5314, RPMI-1640; for MFC: Candida albicans SC5314, value in brackets. Type of assay: cell-based.
Description: as §1, §2

A further assay has as its system Candida krusei ATCC 6258. As to the kind of experiment: Fungal growth inhibition MIC (MFC). It is filed as cell-based. The following applies: Pichia kudriavzevii, ATCC6258; for MIC: Candida krusei ATCC 6258, RPMI-1640; for MFC: Candida krusei ATCC 6258, value in brackets.
Description: as §1, §2

For assay [3], the system named is Saccharomyces cerevisiae ATCC 9763. As to the kind of experiment: Fungal growth inhibition MIC (MFC). Type of assay: cell-based. Particulars: ATCC9763; for MIC: Saccharomyces cerevisiae ATCC 9763, RPMI-1640; for MFC: Saccharomyces cerevisiae ATCC 9763, value in brackets.
Description: as §1, §2

In the next assay the test system is Candida glabrata Cg003. As to the kind of experiment: Fungal growth inhibition MIC (MFC). Particulars: Nakaseomyces glabratus, Candida glabrata Cg003 (clinical azole-resistant isolate); for MIC: RPMI-1640; for MFC: value in brackets. It is filed as cell-based.
Description: as §1, §2

Assay [4] concerns Candida glabrata ATCC 90030. Put plainly: Fungal growth inhibition MIC (MFC). Type of assay: cell-based. Particulars: Nakaseomyces glabratus, ATCC90030, Candida glabrata ATCC 90030 (wild-type); for MIC: RPMI-1640; for MFC: value in brackets.
Description: as §1, §2

In the case of `OC(CN1CCOCC1)Cn1c2ccc(Cl)cc2c2cc(Cl)ccc21` (centres unmarked) [Compound 7, 1-(3,6-dichloro-9H-carbazol-9-yl)-3-morpholinopropan-2-ol], the MIC was above 75 µM in assay [1]; above 75 µM in assay [2]; 75 µM (≈ 28.4 µg/mL) against Candida albicans SC5314; above 75 µM with Candida krusei ATCC 6258; 24 µM (≈ 9.1 µg/mL) in assay [3]; above 75 µM in the assay with Candida glabrata Cg003. Besides, the MIC in assay [4] was above 75 µM. The compound further showed an IC50 on C. albicans H^+-ATPase of 2.6 ± 0.4 µM. Moreover, the MFC against Candida albicans SC5314 was 75 µM (≈ 28.4 µg/mL); against Candida krusei ATCC 6258, above 75 µM; in assay [3] it was 24 µM (≈ 9.1 µg/mL); in the assay on Candida glabrata Cg003, above 75 µM; in assay [4] it was above 75 µM.
In the case of `CN(C)CCCn1c2ccc(Cl)cc2c2cc(Cl)ccc21` [Compound 14, 3-(3,6-dichloro-9H-carbazol-9-yl)-N,N-dimethyl-propan-1-amine], the MIC is above 75 µM in assay [1]; above 75 µM in assay [2]; 24 µM (≈ 7.71 µg/mL) in the assay with Candida albicans SC5314; 13 µM (≈ 4.18 µg/mL) against Candida krusei ATCC 6258; 5.8 µM (≈ 1.86 µg/mL) in assay [3]; 24 µM (≈ 7.71 µg/mL) in the assay on Candida glabrata Cg003. The MIC in assay [4] is 24 µM (≈ 7.71 µg/mL). On C. albicans H^+-ATPase, half-maximal inhibition (IC50) required 23.3 ± 5.3 µM. In addition, the MFC against Candida albicans SC5314 was determined as 75 µM (≈ 24.1 µg/mL); in the assay with Candida krusei ATCC 6258, 24 µM (≈ 7.71 µg/mL); in assay [3], 16 µM (≈ 5.14 µg/mL); against Candida glabrata Cg003, 75 µM (≈ 24.1 µg/mL); in assay [4], 24 µM (≈ 7.71 µg/mL).
On to `Clc1ccc2c(c1)c1cc(Cl)ccc1n2CCCN1CCOCC1` [Compound 18, 4-(3-(3,6-dichloro-9H-carbazol-9-yl)propyl)morpholine], for which the MIC (in assay [1]; in assay [2]; in the assay on Candida albicans SC5314; against Candida krusei ATCC 6258; in assay [3]; with Candida glabrata Cg003) was above 75 µM in each case. The MIC in assay [4] is above 75 µM. The compound also returned an IC50 at C. albicans H^+-ATPase of 5.9 ± 1.7 µM. Further, the MFC (with Candida albicans SC5314; in the assay on Candida krusei ATCC 6258; in assay [3]; against Candida glabrata Cg003; in assay [4]) was above 75 µM each time.
With `OC(Cn1cncn1)Cn1c2ccc(Cl)cc2c2cc(Cl)ccc21` (centres unmarked) [Compound 6, 1-(3,6-dichloro-9H-carbazol-9-yl)-3-(1H-1,2,4-triazol-1-yl)propan-2-ol], the MIC in assay [1] is above 75 µM; in assay [2], above 75 µM; in the assay on Candida albicans SC5314 it was 75 µM (≈ 27.1 µg/mL); against Candida krusei ATCC 6258, above 75 µM; in assay [3] it was 75 µM (≈ 27.1 µg/mL); in the assay with Candida glabrata Cg003, above 75 µM. The same compound gave an MIC in assay [4] above 75 µM. Also, the midpoint of inhibition at C. albicans H^+-ATPase, the IC50, lay at 4 ± 1.2 µM. Also, the MFC (with Candida albicans SC5314; in the assay with Candida krusei ATCC 6258; in assay [3]; against Candida glabrata Cg003; in assay [4]) was above 75 µM each time.
For the compound `CN1CCN(CC(O)Cn2c3ccc(O)cc3c3cc(O)ccc32)CC1` (centres unmarked) [Compound 13, 9-(2-hydroxy-3-(4-methylpiperazin-1-yl)propyl)-9H-carbazole-3,6-diol], the MIC (in assay [1]; in assay [2]; in the assay with Candida albicans SC5314; with Candida krusei ATCC 6258; in assay [3]; against Candida glabrata Cg003) was above 75 µM in each case. The MIC in assay [4] is above 75 µM. For the same compound, the IC50 at C. albicans H^+-ATPase is above 167 µM. Moreover, the MFC (in the assay on Candida albicans SC5314; against Candida krusei ATCC 6258; in assay [3]; in the assay on Candida glabrata Cg003; in assay [4]) was above 75 µM throughout.
Take `O=C(O)C1CCN(CC(O)Cn2c3ccc(Cl)cc3c3cc(Cl)ccc32)CC1` (centres unmarked) [Compound 9, 1-(3-(3,6-dichloro-9H-carbazol-9-yl)-2-hydroxypropyl)piperidine-4-carboxylic acid]: the MIC (in assay [1]; in assay [2]; against Candida albicans SC5314; with Candida krusei ATCC 6258; in assay [3]; in the assay on Candida glabrata Cg003) was above 75 µM in each case. The compound also registered an MIC in assay [4] above 75 µM. 105 ± 13.9 µM corresponded to half-maximal inhibition at C. albicans H^+-ATPase (IC50). For the same compound, the MFC (against Candida albicans SC5314; in the assay on Candida krusei ATCC 6258; in assay [3]; in the assay on Candida glabrata Cg003; in assay [4]) was above 75 µM throughout.
As to `CN1CCN(CC(O)Cn2c3ccc(C#N)cc3c3cc(C#N)ccc32)CC1` (centres unmarked) [Compound 12, 9-(2-hydroxy-3-(4-methylpiperazin-1-yl)propyl)-9H-carbazole-3,6-dicarbonitrile], the MIC (in assay [1]; in assay [2]; against Candida albicans SC5314; against Candida krusei ATCC 6258; in assay [3]; in the assay on Candida glabrata Cg003) was above 75 µM each time. Besides, the MIC in assay [4] was above 75 µM. This compound gave an IC50 on C. albicans H^+-ATPase of 144 ± 14.7 µM. The MFC (against Candida albicans SC5314; in the assay with Candida krusei ATCC 6258; in assay [3]; against Candida glabrata Cg003; in assay [4]) was above 75 µM each time.
As for `COc1ccc2c(c1)c1cc(OC)ccc1n2CC(O)CN1CCN(C)CC1` (centres unmarked) [Compound 11, 1-(3,6-dimethoxy-9H-carbazol-9-yl)-3-(4-methylpiperazin-1-yl)propan-2-ol], the MIC (in assay [1]; in assay [2]; against Candida albicans SC5314; with Candida krusei ATCC 6258; in assay [3]; in the assay with Candida glabrata Cg003) was above 75 µM throughout. Besides, the minimal inhibitory concentration (MIC) in assay [4] is above 75 µM. The compound further registered an IC50 at C. albicans H^+-ATPase above 167 µM. Moreover, the MFC (in the assay on Candida albicans SC5314; in the assay on Candida krusei ATCC 6258; in assay [3]; in the assay with Candida glabrata Cg003; in assay [4]) was above 75 µM each time.

The term MIC denotes the lowest concentration that inhibits growth of the organism. The IC50 is the midpoint of a concentration-inhibition curve. Low values mean greater potency, high ones weaker potency. A word on the MFC: it is the lowest tested concentration that kills the fungus rather than only halting it.
